Test results reported in patent publication US20150197492A1, “NOVEL INDENO[1,2-c]QUINOLIN-11-ONE DERIVATIVES, PREPARATION METHOD AND APPLICATION THEREOF” (National Defense Medical Center, priority 2014, published 2015).

Experiments:
Type in all cases: cell-based
SNB-19 = test: cells; details: SNB-19 (CNS Cancer), 10 μM, 48 hours
DU-145 = test: cells; details: DU-145 (Prostate Cancer), 10 μM, 48 hours
RXF 393 = test: cells; details: RXF 393 (Renal Cancer), 10 μM, 48 hours
OVCAR-5 = test: cells; details: OVCAR-5 (Ovarian Cancer), 10 μM, 48 hours
SF-539 = test: cells; details: SF-539 (CNS Cancer), 10 μM, 48 hours
MALME-3M = test: cells; details: MALME-3M (Melanoma), 10 μM, 48 hours
T-47D = test: cells; details: T-47D (Breast Cancer), 10 μM, 48 hours
RPMI-8226 = test: cells; details: RPMI-8226 (Leukemia), 10 μM, 48 hours
MDA-MB-231/ATCC = test: cells; details: MDA-MB-231/ATCC (Breast Cancer), 10 μM, 48 hours
MCF7 = test: cells; details: MCF7 (Breast Cancer), 10 μM, 48 hours
UACC-257 = test: cells; details: UACC-257 (Melanoma), 10 μM, 48 hours
NCI/ADR-RES = test: cells; details: NCI/ADR-RES (Ovarian Cancer), 10 μM, 48 hours
A549/ATCC = test: cells; details: A549/ATCC (Non-Small Cell Lung Cancer), 10 μM, 48 hours
SNB-75 = test: cells; details: SNB-75 (CNS Cancer), 10 μM, 48 hours
CCRF-CEM = test: cells; details: CCRF-CEM (Leukemia), 10 μM, 48 hours
COLO 205 = test: cells; details: COLO 205 (Colon Cancer), 10 μM, 48 hours
NCI-H226 = test: cells; details: NCI-H226 (Non-Small Cell Lung Cancer), 10 μM, 48 hours
UACC-62 = test: cells; details: UACC-62 (Melanoma), 10 μM, 48 hours
SK-MEL-2 = test: cells; details: SK-MEL-2 (Melanoma), 10 μM, 48 hours
HOP-62 = test: cells; details: HOP-62 (Non-Small Cell Lung Cancer), 10 μM, 48 hours
CAKI-1 = test: cells; details: CAKI-1 (Renal Cancer), 10 μM, 48 hours
HCC-2998 = test: cells; details: HCC-2998 (Colon Cancer), 10 μM, 48 hours
HS 578T = test: cells; details: HS 578T (Breast Cancer), 10 μM, 48 hours
UO-31 = test: cells; details: UO-31 (Renal Cancer), 10 μM, 48 hours
MDA-MB-468 = test: cells; details: MDA-MB-468 (Breast Cancer), 10 μM, 48 hours
SK-MEL-5 = test: cells; details: SK-MEL-5 (Melanoma), 10 μM, 48 hours
OVCAR-8 = test: cells; details: OVCAR-8 (Ovarian Cancer), 10 μM, 48 hours
MDA-MB-435 = test: cells; details: MDA-MB-435 (Melanoma), 10 μM, 48 hours
EKVX = test: NCI cancer cell cytotoxicity assay, Non-Small Cell Lung Cancer EKVX; details: 10 μM, 48 hours
786-0 = test: cells; details: 786-0 (Renal Cancer), 10 μM, 48 hours
NCI-H522 = test: cells; details: NCI-H522 (Non-Small Cell Lung Cancer), 10 μM, 48 hours
HOP-92 = test: cells; details: HOP-92 (Non-Small Cell Lung Cancer), 10 μM, 48 hours

Structure (SMILES) | growth percentage (SNB-19) | growth percentage (DU-145) | growth percentage (RXF 393) | growth percentage (OVCAR-5) | growth percentage (SF-539) | growth percentage (MALME-3M) | growth percentage (T-47D) | growth percentage (RPMI-8226) | growth percentage (MDA-MB-231/ATCC) | growth percentage (MCF7) | growth percentage (UACC-257) | growth percentage (NCI/ADR-RES) | growth percentage (A549/ATCC) | growth percentage (SNB-75) | growth percentage (CCRF-CEM) | growth percentage (COLO 205) | growth percentage (NCI-H226) | growth percentage (UACC-62) | growth percentage (SK-MEL-2) | growth percentage (HOP-62) | also measured
O=C1c2cc(Cl)ccc2-c2c(SCCO)nc3ccccc3c21 [SJ-25, 6-(2-Hydroxyethylthio)-9-chloro-11H-indeno[1,2-c]quinolin-11-one] | 89.19% | 92.27% | 79.39% | 112.54% | 100.05% | 107.23% | 63.89% | 62.28% | 72.56% | 67.82% | 106.91% | 73.58% | 76.42% | 66.06% | 71.56% | 87.39% | 80.52% | 84.47% | 95.85% | 91.46% | growth percentage (CAKI-1): 41.86%; growth percentage (HCC-2998): 96.27%; growth percentage (HS 578T): 58.28%; growth percentage (UO-31): 56.23%; growth percentage (MDA-MB-468): 77.36%; growth percentage (SK-MEL-5): 68.56%; growth percentage (OVCAR-8): 90.21%; growth percentage (MDA-MB-435): 95.15%; growth percentage (EKVX): 30.15%; growth percentage (786-0): 100.58%; growth percentage (NCI-H522): 68.89%
O=C1c2cc(Cl)ccc2-c2c(O)nc3ccccc3c21 [SJ-26, 6-Hydroxy-9-chloro-11H-indeno[1,2-c]quinolin-11-one] | 99.28% | 111.80% | 99.93% | 126.77% | 105.79% | 103.37% | 67.23% | 90.60% | 86.98% | 68.09% | 106.31% | 97.00% | 104.88% | 80.33% | 105.78% | 98.25% | 85.66% | 95.17% | 117.12% | 91.26% | growth percentage (CAKI-1): 71.62%; growth percentage (HCC-2998): 102.24%; growth percentage (HS 578T): 105.98%; growth percentage (UO-31): 70.50%; growth percentage (MDA-MB-468): 80.08%; growth percentage (SK-MEL-5): 84.87%; growth percentage (OVCAR-8): 107.63%; growth percentage (MDA-MB-435): 100.35%; growth percentage (EKVX): 72.14%; growth percentage (786-0): 114.55%; growth percentage (NCI-H522): 92.22%
O=C1c2cc(Cl)ccc2-c2c(Cl)nc3ccccc3c21 [TC-XCl-1, 6,9-Dichloro-11H-indeno[1,2-c]quinolin-11-one] | 101.30% | 113.91% | 112.80% | 137.00% | 110.08% | 102.06% | 86.97% | 92.83% | 87.66% | 74.25% | 127.99% | 96.78% | 108.98% | 82.91% | 64.86% | 99.18% | 91.86% | 94.45% | 117.11% | 94.89% | growth percentage (HOP-92): 71.94%; growth percentage (CAKI-1): 75.67%; growth percentage (HCC-2998): 98.52%; growth percentage (HS 578T): 91.01%; growth percentage (UO-31): 80.62%; growth percentage (MDA-MB-468): 107.92%; growth percentage (SK-MEL-5): 86.30%; growth percentage (OVCAR-8): 101.08%; growth percentage (MDA-MB-435): 100.46%; growth percentage (EKVX): 79.27%; growth percentage (786-0): 112.40%; growth percentage (NCI-H522): 89.37%
